This assay has as its target Neuronal acetylcholine receptor subunit alpha-7 (Rattus norvegicus, UniProt Q05941). As to the kind of experiment: Inhibition Assay: Compounds ([…]) were also evaluated for inhibition of binding to a7 nAChR using [125I]iodoMLA as previously reported in Carroll et al. The binding assays were conducted and the Ki values calculated as described in Carroll, F. I. et al., "Synthesis, nicotinic acetylcholine receptor binding, and antinociceptive properties of 2-exo-2-(2',3'-disubstituted 5'-pyridinyl)-7- ….

Results on two compounds are retold here after ChEMBL document CHEMBL3886280, “Nicotinic receptor compounds” (2015).

Sequence of Neuronal acetylcholine receptor subunit alpha-7 (Q05941 whole entry): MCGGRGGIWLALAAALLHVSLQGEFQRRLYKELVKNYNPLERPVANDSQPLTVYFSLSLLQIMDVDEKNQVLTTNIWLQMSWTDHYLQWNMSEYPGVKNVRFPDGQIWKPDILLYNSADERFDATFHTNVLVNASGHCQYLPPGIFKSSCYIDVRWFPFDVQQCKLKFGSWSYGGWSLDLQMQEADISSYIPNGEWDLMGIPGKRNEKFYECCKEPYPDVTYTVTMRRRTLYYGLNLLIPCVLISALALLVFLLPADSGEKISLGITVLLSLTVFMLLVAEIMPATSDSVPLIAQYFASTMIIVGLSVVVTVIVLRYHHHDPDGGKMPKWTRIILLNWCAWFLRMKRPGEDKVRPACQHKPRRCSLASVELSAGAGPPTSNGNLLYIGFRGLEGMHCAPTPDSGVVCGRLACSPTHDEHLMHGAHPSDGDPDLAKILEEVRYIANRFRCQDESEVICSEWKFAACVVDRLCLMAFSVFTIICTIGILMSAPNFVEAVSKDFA

Consider `Fc1ncc(C2CC3CCC2N3)cc1-c1ccccc1` (racemic), for which the Ki (usually the equilibrium dissociation constant of an inhibitor or competing ligand from its target) was greater than 2 µM.
With `Fc1ncc(C2CC3CCC2N3)cc1-c1cccc(Cl)c1` (configuration not stated), the Ki was greater than 2 µM.
